Earlier results, collected in patent publication US20200245614A1, “AGROCHEMICAL EMULSIFIABLE CONCENTRATE COMPOSITION” (priority 2017, published 2020).

Conditions: n-octanol/water
In the case of `CCCCOC(=O)OCCCC` [Composition B-3, Di-n-butyl carbonate], the LogPow value is given as 3.47. For `CC(C)COC(=O)CCCCC(=O)OCC(C)C` [Composition B-4, Diisobutyl adipate], the LogPow value is given as 3.70. In the case of `CCCCCCCCCCCC(=O)OC` [Composition B-5, Methyl laurate], the LogPow value is given as 5.41. For `COCCOCCO` [Composition C-1, Diethylene glycol monomethyl ether], the LogPow value is listed as −1.18. In the case of `OC1CCCCC1` [Composition C-4, Cyclohexanol], the LogPow value is listed as 1.2. In the case of `O=C1CCCCC1` [Composition C-5, Cyclohexanone], the LogPow value is listed as 0.86. For `CCCCOCCOCCO` [Composition C-6, Butyl diglycol], the LogPow value is given as 0.56. In the case of `COCC(C)O` (stereo not shown) [Composition C-9, Propylene glycol monomethyl ether], the LogPow value is listed as −0.342. For `CN1CCCC1=O` [Composition C-10, N-methyl-2-pyrrolidone], the LogPow value is given as −0.38. For `COC(C)COC(C)CO` (stereo not shown) [Composition C-11, Dipropylene glycol methyl ether], the LogPow value is listed as −0.46. For `CC1COC(=O)O1` (stereo not shown) [Composition C-12, Propylene carbonate], the LogPow value is given as −0.5. For `O=C1CCCO1` [Composition C-13, γ-Butyrolactone], the LogPow value is given as −0.566. In the case of `CCCCN1CCCC1=O` [Composition C-16, N-Butylpyrrolidone], the LogPow value is given as 1.27. For `COCCOCCOCCO` [Composition C-17, Triethylene glycol monomethyl ether], the LogPow value is given as −1.12. In the case of `CC(O)COc1ccccc1` (stereo not shown) [Composition C-19, Phenoxypropanol], the LogPow value is listed as 1.51. For `OCCOCc1ccccc1` [Composition C-20, Benzyl glycol], the LogPow value is given as 1.11. For `COC(=O)C(C)CCC(=O)N(C)C` (stereo not shown) [Composition C-21, 5-(Dimethylamino)-2-methyl-5-oxopentanoic acid methyl ester], the LogPow value is given as 0.39. In the case of `CCCCCCCC/C=C\CCCCCCCC(=O)OC` [Composition C-22, Methyl oleate], the LogPow value is listed as 7.45. For `CCCCCCCCO` [Composition C-24, Octanol], the LogPow value is listed as 3. For `CCCCOC(C)=O` [Composition C-26, Butyl acetate], the LogPow value is given as 1.82. In the case of `CCCCOCCOCCOCCCC` [Composition C-27, Dibutyl diglycol], the LogPow value is listed as 1.92. For `CCCCC(CC)COCCOCCO` (stereo not shown) [Composition C-28, 2-ethylhexyl diglycol], the LogPow value is listed as 2. For `CC(C)=O` [acetone], the LogPow value is given as −0.24. In the case of `CO` [methanol], the LogPow value is listed as −0.82. For `CCC(C)=O` [methyl ethyl ketone], the LogPow value is listed as 0.29. For `CCCCCO` [pentanol], the LogPow value is given as 1.51. In the case of Xylene [Composition B-2], the LogPow value is given as 3.15.

Same assay, conditions: n-octanol/water; listed as gamma-butyl lactone
For `O=C1CCCO1` [Composition C-13, γ-Butyrolactone], the LogPow value is given as −0.57.
